Columns and labels:
hCB1 = hCB1 (Homo sapiens, UniProt P21554); conditions: cited from earlier work
CA1 neurons = assay: Evoked EPSCs (basal glutamatergic strength) in hippocampal CA1 slices, whole-cell patch clamp; format: in vivo, rat
Experimental: (§1) Animals were divided into several groups (40-50 rats per group). The Aβ1-40 group received bilateral intracerebral microinjection of Aβ1-40 fibrils once and saline intraperitoneally (i.p.) daily for 14 days. The Aβ1-40+MDA7 group received bilateral intracerebral microinjection of Aβ1-40 fibrils once and 15 mg/kg MDA7 i.p. daily for 14 days. Other cohorts received smaller doses of MDA7 (5 mg/kg or 1.5 mg/kg) i.p. daily for 14 days to determine the dose-response characteristics for MDA7. In other groups, AM630 (a CB2 antagonist) 5 mg/kg i.p. was administered daily for 14 days either alone (Aβ1-40+AM630 group) or 15 min prior to MDA7 (15 mg/kg i.p.) administration (Aβ1-40+MDA7+AM630 group) to rats injected with β1-40 fibrils. […]
Whole-cell patch clamp recordings in hippocampal slices. […] The series resistance was optimally compensated by ≥70% and constantly monitored throughout the experiments. […] Excitatory postsynaptic currents (EPSCs) were recorded in the CA1 area in the presence of GABAA antagonist bicuculline (30 μM). The evoked EPSCs were filtered at 2 kHz, digitized at 10 kHz, and acquired and analyzed using Axograph X software. The amplitude of EPSCs was monitored for a baseline period of at least 15 min. […]

IL-1β = IL-1β protein expression in hippocampal CA1 area (immunoblotting); format: in vivo, rat; conditions: Aβ1-40-injected rats, 15 mg/kg i.p. daily for 14 days
Experimental: as §1
Protein extraction and immunoblotting. […] Protein concentrations were determined by using the Bio-Rad (Hercules, Calif.) protein assay kit.
The samples were treated with SDS sample buffer at 95° C. for 5 min, loaded on a 7.5% SDS-polyacrylamide, gel, and blotted to a nitrocellulose membrane. […] The immunoreactivity was detected using enhanced chemiluminescence (ECL Advance Kit; Amersham Biosciences). The intensity of the bands was captured digitally and analyzed quantitatively with ImageJ software. […]

hCB1, sequence (P21554 whole entry): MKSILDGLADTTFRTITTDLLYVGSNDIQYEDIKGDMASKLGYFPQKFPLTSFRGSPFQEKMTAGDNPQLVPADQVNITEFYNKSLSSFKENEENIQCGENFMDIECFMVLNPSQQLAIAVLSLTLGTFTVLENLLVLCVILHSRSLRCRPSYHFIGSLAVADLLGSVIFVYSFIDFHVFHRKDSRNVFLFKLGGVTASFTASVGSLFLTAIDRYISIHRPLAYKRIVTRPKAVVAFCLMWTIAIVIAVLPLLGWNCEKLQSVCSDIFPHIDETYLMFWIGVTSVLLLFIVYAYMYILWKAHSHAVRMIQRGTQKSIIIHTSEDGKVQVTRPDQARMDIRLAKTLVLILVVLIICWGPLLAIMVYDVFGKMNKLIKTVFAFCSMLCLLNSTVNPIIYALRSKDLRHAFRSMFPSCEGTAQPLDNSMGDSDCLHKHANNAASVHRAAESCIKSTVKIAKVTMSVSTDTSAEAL

In the case of `CC1(Cc2ccccc2)COc2cc(C(=O)N3CCCCC3)ccc21` (stereo not shown) [MDA7, 3-benzyl-3-methyl-2,3-dihydrobenzofuran-6-carboxylic acid-piperidine amide], the “EC50 at hCB1” value (hCB1) is given as “not active”, the “amplitude of evoked EPSCs in CA1 neurons” value (CA1 neurons; Aβ1-40-injected rats, 15 mg/kg i.p. for 14 days, all three stimulus intensities) is given as “restored” and the “basal glutamatergic strength, treatment alone” value (CA1 neurons; MDA7 group (no Aβ1-40) vs control group) is given as “not different”. The “IL-1β protein expression (immunoblot)” value (IL-1β) was “significantly attenuated”.

From US11160798B2, “Neuroprotective CB2 receptor agonists” (THE CLEVELAND CLINIC FOUNDATION, priority 2012, dated 2021)
